Experimental data taken from publication PMC6934184, “Selective DNA-PKcs inhibition extends the therapeutic index of localized radiotherapy and chemotherapy” (The Journal of Clinical Investigation, 2019).

Biological target: T1, IKBKE (IKK epsilon) (Homo sapiens, UniProt Q14164)
T1 construct: purchased Thermo Fisher Scientific (Life Technologies) SelectScreen
Assay: SelectScreen Z'LYTE
Format: biochemical
Outline: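 NU5455 was profiled across the SelectScreen Broad panel of kinase activity and binding assays. Z'LYTE reactions such as CSF1R ran at apparent Km ATP, while the Adapta CAMK1 assay used ATP listed as 10. Values are given as percent.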

T1 sequence (Q14164 whole entry): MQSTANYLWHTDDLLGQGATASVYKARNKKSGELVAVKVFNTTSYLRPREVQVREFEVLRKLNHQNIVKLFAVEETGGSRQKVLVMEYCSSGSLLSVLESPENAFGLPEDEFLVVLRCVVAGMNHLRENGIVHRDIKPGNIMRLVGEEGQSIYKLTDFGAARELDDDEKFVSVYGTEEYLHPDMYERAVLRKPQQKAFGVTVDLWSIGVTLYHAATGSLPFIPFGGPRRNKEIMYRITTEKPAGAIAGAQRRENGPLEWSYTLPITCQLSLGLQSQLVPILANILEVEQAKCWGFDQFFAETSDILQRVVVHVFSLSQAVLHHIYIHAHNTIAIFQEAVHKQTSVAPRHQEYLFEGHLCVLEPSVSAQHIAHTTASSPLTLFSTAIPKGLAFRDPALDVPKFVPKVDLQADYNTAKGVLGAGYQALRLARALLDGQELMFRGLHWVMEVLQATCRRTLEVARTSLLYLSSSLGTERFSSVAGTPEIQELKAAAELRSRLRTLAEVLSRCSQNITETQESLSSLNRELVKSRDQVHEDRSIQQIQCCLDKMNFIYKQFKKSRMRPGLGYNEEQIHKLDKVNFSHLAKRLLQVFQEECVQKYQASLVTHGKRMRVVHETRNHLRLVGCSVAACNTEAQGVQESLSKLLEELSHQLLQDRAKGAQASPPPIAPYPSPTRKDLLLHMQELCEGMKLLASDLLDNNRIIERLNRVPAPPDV

## CN(C(=O)CN1CCOCC1)c1ccc2sc3c(-c4cccc5c(=O)cc(N6CC7CCC(C6)O7)oc45)cccc3c2c1 [NU5455]
  inhibition at 1 µM: -0.7%
